Data taken from patent US8124793B2, “Derivatives of ethylene methanedisulfonate as cancer chemotherapeutic agents” (priority 2007, dated 2012).

What was measured:
Assay type in all cases: cell-based
HL-60 (TB) = assay: NCI screen, growth of human tumor cells: Leukemia HL-60 (TB); conditions: HL-60 (TB) (Leukemia), 10^−4 molar
Method: (§1) In the NCI screening process, each compound was tested and described by a minimum of 60 data points. The test data include, but are not limited to the type of cancer, the molar concentration used in the screen, and the percent growth of the cancer. In some cases, NMR and elemental analysis were used for structural assignment.

HCT-15 = assay: NCI screen, growth of human tumor cells: Colon Cancer HCT-15; conditions: HCT-15 (Colon Cancer), 10^−4 molar
Method in brief: (§2)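 NCI screening: compound applied to tumor cell lines at a given molar concentration, growth measured as percent. Minimum 60 data points/compound; cancer type noted.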

CCRF-CEM = assay: NCI screen, growth of human tumor cells: Leukemia CCRF-CEM; conditions: CCRF-CEM (Leukemia), 10^−4 molar
Method in brief: as §2

SK-MEL-2 = assay: NCI screen, growth of human tumor cells: Melanoma SK-MEL-2; conditions: SK-MEL-2 (Melanoma), 10^−4 molar
Method in brief: as §2

OVCAR-3 = assay: NCI screen, growth of human tumor cells: Ovarian Cancer OVCAR-3; conditions: OVCAR-3 (Ovarian Cancer), 10^−4 molar
Method in brief: as §2

human cancer cells = assay: NCI screen summary over the cancers tested (negative growth of human cancer cells); conditions: 10^−4 M conc.; cancers with negative growth / cancers tested
Method: as §1
The derivatives in the tables are grouped using the same category as in the tables 1-6.

OVCAR-4 = assay: NCI screen, growth of human tumor cells: Ovarian Cancer OVCAR-4; conditions: OVCAR-4 (Ovarian Cancer), 10^−4 molar
Method in brief: as §2

SF-539 = assay: NCI screen, growth of human tumor cells: CNS Cancer SF-539
Method in brief: as §2

RPMI-8226 = assay: NCI screen, growth of human tumor cells: Leukemia RPMI-8226; conditions: RPMI-8226 (Leukemia), 10^−4 molar
Method in brief: as §2

RXF-393 = assay: NCI screen, growth of human tumor cells: Renal Cancer RXF-393; conditions: RXF-393 (Renal Cancer), 10^−4 molar
Method in brief: as §2

SF-268 = assay: NCI screen, growth of human tumor cells: CNS Cancer SF-268
Method in brief: as §2

NCI-H23 = assay: NCI screen, growth of human tumor cells: Non-Small Cell Lung NCI-H23; conditions: NCI-H23 (Non-Small Cell Lung), 10^−4 molar
Method in brief: as §2

SK-OV-3 = assay: NCI screen, growth of human tumor cells: Ovarian Cancer SK-OV-3; conditions: SK-OV-3 (Ovarian Cancer), 10^−4 molar
Method: as §1

LOXIMVI = assay: NCI screen, growth of human tumor cells: Melanoma LOXIMVI; conditions: LOXIMVI (Melanoma), 10^−4 molar
Method in brief: as §2

BT-549 = assay: NCI screen, growth of human tumor cells: Breast Cancer BT-549
Method in brief: as §2

SNB-75 = assay: NCI screen, growth of human tumor cells: CNS Cancer SNB-75; conditions: SNB-75 (CNS Cancer), 10^−4 molar
Method in brief: as §2

NCI-H522 = assay: NCI screen, growth of human tumor cells: Non-Small Cell Lung NCI-H522; conditions: NCI-H522 (Non-Small Cell Lung), 10^−4 molar
Method in brief: as §2

HOP-62 = assay: NCI screen, growth of human tumor cells: Non-Small Cell Lung HOP-62
Method in brief: as §2

KM12 = assay: NCI screen, growth of human tumor cells: Colon Cancer KM12; conditions: KM12 (Colon Cancer), 10^−4 molar
Method in brief: as §2

SF-295 = assay: NCI screen, growth of human tumor cells: CNS Cancer SF-295
Method in brief: as §2

U-251 = assay: NCI screen, growth of human tumor cells: CNS Cancer U-251; conditions: U-251 (CNS Cancer), 10^−4 molar
Method in brief: as §2

UACC-62 = assay: NCI screen, growth of human tumor cells: Melanoma UACC-62
Method in brief: as §2

HS 578T = assay: NCI screen, growth of human tumor cells: Breast Cancer HS 578T; conditions: HS 578T (Breast Cancer), 10^−4 molar
Method in brief: as §2

T-47D = assay: NCI screen, growth of human tumor cells: Breast Cancer T-47D; conditions: T-47D (Breast Cancer), 10^−4 molar
Method: as §1

MOLT-4 = assay: NCI screen, growth of human tumor cells: Leukemia MOLT-4; conditions: MOLT-4 (Leukemia), 10^−4 molar
Method in brief: as §2

ACHN = assay: NCI screen, growth of human tumor cells: Renal Cancer ACHN; conditions: ACHN (Renal Cancer), 10^−4 molar
Method in brief: as §2

SR = assay: NCI screen, growth of human tumor cells: Leukemia SR; conditions: SR (Leukemia), 10^−4 molar
Method in brief: as §2

SN12C = assay: NCI screen, growth of human tumor cells: Renal Cancer SN12C; conditions: SN12C (Renal Cancer), 10^−4 molar
Method in brief: as §2

MCF 7 = assay: NCI screen, growth of human tumor cells: Breast Cancer MCF 7; conditions: MCF 7 (Breast Cancer), 10^−4 molar
Method in brief: as §2

786-0 = assay: NCI screen, growth of human tumor cells: Renal Cancer 786-0; conditions: 786-0 (Renal Cancer), 10^−4 molar
Method in brief: as §2

MCF7/ADR-RES = assay: NCI screen, growth of human tumor cells: Breast Cancer MCF7/ADR-RES; conditions: MCF7/ADR-RES
Method in brief: as §2

CAKI-1 = assay: NCI screen, growth of human tumor cells: Renal Cancer CAKI-1; conditions: CAKI-1 (Renal Cancer), 10^−4 molar
Method in brief: as §2

HCT-116 = assay: NCI screen, growth of human tumor cells: Colon Cancer HCT-116; conditions: HCT-116 (Colon Cancer), 10^−4 molar
Method in brief: as §2

With `N#CCCC1(CCC#N)S(=O)(=O)OCCOS1(=O)=O` [NSC 665941] the “percent of growth of human tumor cells” value (HL-60 (TB)) was −17%, the “percent of growth of human tumor cells” value (HCT-15) was 27% and the “percent of growth of human tumor cells” value (CCRF-CEM) was 5%. The “percent of growth of human tumor cells” value (SK-MEL-2) was 26%, the “percent of growth of human tumor cells” value (OVCAR-3) was 12% and the “Percentage of cancers showing negative growth cancers tested” value (human cancer cells) was 10^−4 M conc. = 3/32 = 9%. For the same molecule, the “percent of growth of human tumor cells” value (OVCAR-4) was 4%, the “% Growth” value (SF-539; SF-539, 10^−4 molar) was −48% and the “% Growth” value (SF-539; SF-539, 10^−5 molar) was 47%. For the same molecule, the “percent of growth of human tumor cells” value (RPMI-8226) was 24%, the “percent of growth of human tumor cells” value (RXF-393) was 23% and the “% Growth” value (SF-268; SF-268, 10^−4 molar) was 24%. For the same molecule, the “% Growth” value (SF-268; SF-268, 10^−5 molar) was 48%, the “percent of growth of human tumor cells” value (NCI-H23) was 25% and the “percent of growth of human tumor cells” value (SK-OV-3) was 28%. The “percent of growth of human tumor cells” value (LOXIMVI) was 5%, the “percent of growth of human tumor cells” value (BT-549; BT-549 (Breast Cancer), 10^−4 molar) was 18% and the “% Growth” value (BT-549; BT-549, 10^−4 molar) was 18%. The “% Growth” value (BT-549; BT-549, 10^−5 molar) was 33%, the “percent of growth of human tumor cells” value (SNB-75) was 28% and the “percent of growth of human tumor cells” value (NCI-H522) was 18%. The “% Growth” value (HOP-62; HOP-62, 10^−4 molar) was 16%, the “% Growth” value (HOP-62; HOP-62, 10^−5 molar) was 46% and the “% Growth” value (HOP-62; HOP-62, 10^−6 molar) was 48%. For the same molecule, the “% Growth” value (HOP-62; HOP-62, 10^−7 molar) was 25%, the “% Growth” value (HOP-62; HOP-62, 10^−8 molar) was 25% and the “percent of growth of human tumor cells” value (KM12) was 27%. For the same molecule, the “% Growth” value (SF-295; SF-295, 10^−4 molar) was 7%, the “% Growth” value (SF-295; SF-295, 10^−5 molar) was 47% and the “percent of growth of human tumor cells” value (U-251) was 20%. For the same molecule, the “% Growth” value (UACC-62; UACC-62, 10^−4 molar) was 9%, the “% Growth” value (UACC-62; UACC-62, 10^−5 molar) was 49% and the “percent of growth of human tumor cells” value (HS 578T) was −8%. For the same molecule, the “percent of growth of human tumor cells” value (T-47D) was 25%, the “percent of growth of human tumor cells” value (MOLT-4) was 6% and the “percent of growth of human tumor cells” value (ACHN) was 13%. For the same molecule, the “percent of growth of human tumor cells” value (SR) was 10%, the “percent of growth of human tumor cells” value (SN12C) was 15% and the “percent of growth of human tumor cells” value (MCF 7) was 18%. The “percent of growth of human tumor cells” value (786-0) was 6%, the “% Growth” value (MCF7/ADR-RES; 10^−4 molar) was 1% and the “% Growth” value (MCF7/ADR-RES; 10^−5 molar) was 63%. For the same molecule, the “% Growth” value (MCF7/ADR-RES; 10^−6 molar) was 69%, the “% Growth” value (MCF7/ADR-RES; 10^−7 molar) was 68% and the “% Growth” value (MCF7/ADR-RES; 10^−8 molar) was 56%. For the same molecule, the “percent of growth of human tumor cells” value (CAKI-1) was 28% and the “percent of growth of human tumor cells” value (HCT-116) was 26%.
